Measurements published in US9862721B2, “Tetrahydrocarboline derivative” (ONO PHARMACEUTICAL CO., LTD., priority 2011, dated 2018).

Legend:
human ENPP2 = human ENPP2 (Homo sapiens (Human), UniProt Q13822); experiment: Measurement of human ENPP2 inhibitory activity; format: biochemical; details: human ENPP2, 16:0-LPC substrate, read-out: ENPP2 inhibitory activity rate (%)
Procedure: 10 μL of a test compound solution (10% dimethyl sulfoxide) at each concentration and 40 μL of a 5 μg/mL human ENPP2 solution (buffer A: 100 mmol/L Tris-HCl (pH 9.0), 500 mmol/L NaCl, 5 mmol/L MgCl2, 0.05% Triton X-100) were mixed, 50 μL of a 2 mmol/L 16:0-lysophosphatidylcholine (LPC) solution (buffer A) was further added to react at 37° C. for 24 hours. Subsequently, to 10 μL of the reaction solution was added 90 μL of a measurement buffer (0.5 mmol/L aminoantipyrine, 0.3 mmol/L N-ethyl-N-(2-hydroxy-3-sulfopropyl)-3-methylaniline, 1 U/mL peroxidase, 3 U/mL choline oxidase, 100 mmol/L Tris-HCl (pH 8.5), 5 mmol/L CaCl2) to react at 37° C. for 20 minutes, and spectrophotometric determination was performed at 555 nm.
Using a standard curve, a choline production amount (enzyme activity) in each test compound was calculated, and the inhibitory activity rate of each test compound was calculated, wherein the enzyme activity in a positive control to which a test compound is not added, was a 0% inhibition rate, and the enzyme activity in a negative control to which a test compound and human ENPP2 are not added, were 100% inhibition. Further, concerning the present compounds shown in Table 3, an IC50 value was calculated from inhibitory activity rate at each concentration.

[1] = system: Crl:CD (Sprague-Dawley) male rat; experiment: Measurement of blood pressure and heart rate in rat under wakefulness; format: in vivo; details: conscious rat, forced oral administration, 100, 300 mg/kg, up to 180 minutes
Procedure: A Cr1:CD (Sparague-Dawley) male rat (Charles River Laboratories Japan, Inc., 8 weeks old) was anesthetized by inhalation of isoflurane. A catheter (INTRAMEDIC POLYETHYLENE Tubing PE50, CLAY ADAMS) was inserted and indwelled in a femoral artery and another end was exposed from dorsal skin. The rat was placed in a rearing cage for blood pressure measurement. After elapse of 2 hours or more from the insertion of the catheter, each of the compound of Reference Example 2 and the compound of Example 6(72) (dose: 100, 300 mg/kg) was forcedly orally administered, and blood pressure was measured under no anesthesia and no restraint. The blood pressure was measured by connecting the catheter inserted in the femoral artery and a blood pressure transducer (DX-360, Nihon Kohden Corporation) and passing through an amplifier for blood pressure measurement (Coupler.Amplifier PP-101H.AP-101H, Nihon Kohden Corporation). Blood pressure signals were captured into a data acquisition analysis system (HEM 3.5, NOTOCORD SYSTEM S.A.) through a polygraph system (PEG-1000, Nihon Kohden Corporation) to measure blood pressure (systolic pressure, diastolic pressure, mean blood pressure) and heart rate (measured from blood pressure pulse wave). […] The data were accumulated as measured values at respective time points and % variation values in which each value before administration was taken as 100.

SMILES | inhibition at 1 µM (human ENPP2) [%] | influence on a circulatory organ (blood pressure, heart rate) [1]
O=C(C[C@H]1CC[C@H](C(=O)O)CC1)N1CCc2c(n(Cc3csc(C(F)(F)F)c3)c3ncccc23)C1 [Example 6(13), trans-4-[2-oxo-2-(9-{[5-(trifluoromethyl)-3-thienyl]methyl}-5,6,8,9-tetrahydro-7H-pyrido[4′,3′:4,5]pyrrolo[2,3-b]pyridin-7-yl)ethyl]cyclohexanecarboxylic acid] | 99.2 | –
O=C(C[C@H]1CC[C@H](C(=O)O)CC1)N1CCc2c(n(Cc3ccc(C(F)(F)F)s3)c3ncccc23)C1 [Example 6(16), trans-4-[2-oxo-2-(9-{[5-(trifluoromethyl)-2-thienyl]methyl}-5,6,8,9-tetrahydro-7H-pyrido[4′,3′:4,5]pyrrolo[2,3-b]pyridin-7-yl)ethyl]cyclohexanecarboxylic acid] | 99 | –
CC1(C)[C@@H](CC(=O)N2CCc3c(n(Cc4cnc(C(F)(F)F)s4)c4ccccc34)C2)CC[C@@]1(C)C(=O)O [Example 6(49), (1R,3R)-1,2,2-trimethyl-3-[2-oxo-2-(9-{[2-(trifluoromethyl)-1,3-thiazol-5-yl]methyl}-1,3,4,9-tetrahydro-2H-beta-carbolin-2-yl)ethyl]cyclopentanecarboxylic acid] | 99.1 | –
O=C(CC12CCC(C(=O)O)(CC1)C2)N1CCc2c(n(Cc3ccc(C(F)(F)F)cc3)c3ncccc23)C1 [Example 6(68), 4-(2-oxo-2-{9-[4-(trifluoromethyl)benzyl]-5,6,8,9-tetrahydro-7H-pyrido[4′,3′:4,5]pyrrolo[2,3-b]pyridin-7-yl}ethyl)bicyclo[2.2.1]heptane-1-carboxylic acid] | 99.2 | –
CCc1cccc(Cn2c3c(c4cccnc42)CCN(C(=O)CC24CCC(C(=O)O)(CC2)C4)C3)c1 [Example 6(72), 4-{2-[9-(3-ethylbenzyl)-5,6,8,9-tetrahydro-7H-pyrido[4′,3′:4,5]pyrrolo[2,3-b]pyridin-7-yl]-2-oxoethyl}bicyclo[2.2.1]heptane-1-carboxylic acid] | 99.3 | no influence
CC1(C(=O)O)CCN(CC(=O)N2CCc3c(n(Cc4ccc(C(F)(F)F)s4)c4ncccc34)C2)CC1 [Example 7(39), 4-methyl-1-[2-oxo-2-(9-{[5-(trifluoromethyl)-2-thienyl]methyl}-5,6,8,9-tetrahydro-7H-pyrido[4′,3′:4,5]pyrrolo[2,3-b]pyridin-7-yl)ethyl]-4-piperidinecarboxylic acid] | 99.5 | –
C[C@]1(C(=O)O)CC[C@H](CC(=O)N2CCc3c(n(Cc4cnc(C(F)(F)F)s4)c4ncccc34)C2)CC1 [Example 10(5), trans-1-methyl-4-[2-oxo-2-(9-{[2-(trifluoromethyl)-1,3-thiazol-5-yl]methyl}-5,6,8,9-tetrahydro-7H-pyrido[4′,3′:4,5]pyrrolo[2,3-b]pyridin-7-yl)ethyl]cyclohexanecarboxylic acid] | 97.4 | –
O=C(C[C@H]1CC[C@H](C(=O)O)CC1)N1CCc2c(n(Cc3ccc(F)cc3F)c3ncccc23)C1 [Reference Example 2, trans-4-{2-[9-(2,4-difluorobenzyl)-5,6,8,9-tetrahydro-7H-pyrido[4′,3′:4,5]pyrrolo[2,3-b]pyridin-7-yl}-2-oxoethyl}cyclohexanecarboxylic acid, reference compound] | – | An influence of the compound of Reference Example 2 on a circulatory organ was observed
